Article PMC12575627 (Nature Communications, 2025)

Tests used:
Assay in all cases: […]CABP radioligand binding
Assay type in all cases: biochemical
Conditions in all cases: labelled compound, E. coli soluble protein
RrRubisco (RrL2) = biological target: T1, RrRubisco (RrL2) (Rhodospirillum rubrum, UniProt P04718)
T1 sequence (P04718 1-466): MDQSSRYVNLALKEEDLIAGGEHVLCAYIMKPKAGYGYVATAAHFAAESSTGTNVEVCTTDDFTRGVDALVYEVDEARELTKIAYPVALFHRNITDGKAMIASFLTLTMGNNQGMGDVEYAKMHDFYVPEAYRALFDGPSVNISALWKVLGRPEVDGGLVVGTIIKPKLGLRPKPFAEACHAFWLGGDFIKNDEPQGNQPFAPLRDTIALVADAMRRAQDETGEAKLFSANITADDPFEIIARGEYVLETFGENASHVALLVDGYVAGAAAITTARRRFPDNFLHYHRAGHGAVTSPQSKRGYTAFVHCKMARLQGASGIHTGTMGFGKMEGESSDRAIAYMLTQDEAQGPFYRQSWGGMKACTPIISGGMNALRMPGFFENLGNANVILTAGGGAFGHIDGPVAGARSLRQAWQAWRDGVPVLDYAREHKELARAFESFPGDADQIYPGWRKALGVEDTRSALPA

RrL^c2 = biological target: T2, RrL^c2 (Rhodospirillum rubrum, UniProt P04718)
T2 sequence (P04718 1-466): T1 sequence (P04718 1-466)

Rr^cL2 = biological target: T3, Rr^cL2 (Rhodospirillum rubrum, UniProt P04718)
T3 sequence (P04718 1-466): T1 sequence (P04718 1-466)

## O=C(O)[C@@](O)(COP(=O)(O)O)[C@H](O)[C@H](O)COP(=O)(O)O [14CABP]
RrRubisco (RrL2)
  14CABP radioligand binding (active-site quantification): CLP tagging to RbcL was found to have no measurable impact on RrRubisco formation
RrL^c2
  14CABP radioligand binding (active-site quantification): CLP tagging to RbcL was found to have no measurable impact on RrRubisco formation
Rr^cL2
  14CABP radioligand binding (active-site quantification): CLP tagging to RbcL was found to have no measurable impact on RrRubisco formation
